Like-named read-outs stand apart in the source and are kept apart here.
Columns and labels:
[1] = system: S. aureus (SA RN450); assay: Antibacterial MIC, gram positive; format: cell-based
[2] = system: E. coli (EC D1-209); assay: Antibacterial MIC, gram negative; format: cell-based
[3] = system: SMN2 mRNA; assay: In vitro cell-free splicing assay for inclusion of exon 7; format: biochemical
Description: The following example illustrates how tetracycline compound of the invention are active in an in vitro cell-free assay for the inclusion of exon 7 in […] mRNA. SMN1 and SMN2 pre-mRNA were prepared by in vitro transcription using T7 RNA polymerase of minigene templates that include exon 6, a truncated portion of intron 6, exon 7, intron 7 and a portion of exon 8 in the presence of ^32P-UTP. Labeled RNA was purified on a denaturing polyacrylamide gel followed by phenol extraction and ethanol precipitation of the RNA.
In vitro cell-free splicing of SMN1 and SMN2 transcripts was carried out in a 10 μl reaction volume at 30° C. for 3 hours. The reactions contained 10 fmol of labeled pre-mRNA, 30% (3 VI) HeLa cell nuclear extract (in 20 mM HEPES, pH 7.4, 20% (v/v) glycerol, 0.1M KC1, 0.2 mM EDTA), 1.3% (w/v) polyvinyl alcohol, 1.56 mM MgCl2, 32 mM HEPES, pH 7.4, 0.5 mM ATP, 20 mM creatine phosphate and either 2 μl of test compound (in 20 mM HEPES, pH 7.4, 0.1M KC1, 0.2 mM EDTA) or buffer alone. Following incubation, 200 μl of a solution containing 0.3M NaAc and 0.2% SDS was added to the reaction. Proteins were removed by extraction with an equal volume of phenol and RNA was precipitated with 2.5 volumes of ethanol. RNA was resuspended in formamide sample buffer and separated on a 9% urea-denaturing polyacrylamide gel. Quantitation of splicing was based on phosphorimage analysis (Fujix BAS2000 or Fujifilm FLA-5100). In this assay, percentage exon 7 inclusion averages 12% for the unmutated SMN1 mRNA and 4% for the SMN2 mRNA.
The in vitro activities for exon 7 splicing are expressed as the Emax (the maximum percentage exon 7 inclusion observed) and Cmax (the lowest compound concentration at which the maximum inclusion occurs in μM). For Emax, percentage inclusion values of less than 10% are indicated by “*”, values of 10-20% are indicated by “**”, and values greater than 20% are indicated by “***”. For Cmax data, concentrations of greater than 40 μM are indicated by “*”, concentrations between 40 and 10 μM are represented by “**” and concentrations of less than 10 μM are represented by “***”.

[4] = CLSI methodology, 35° C., 18-24 hours
[5] = HeLa cell nuclear extract, 30° C., 3 hours

CN1CCN(CC(=O)c2ccc(O)c3c2CC2CC4C(N(C)C)C(O)=C(C(N)=O)C(=O)C4(O)C(O)=C2C3=O)CC1 (stereo not drawn) [BB]
MIC Gram Positive (SA RN450) [1, 4]: *** (Good antibacterial activity (e.g., less than about 4 μg/mL)) | MIC Gram Negative (EC D1-209) [2, 4]: * (weak antibacterial activity (greater than about 8 μg/mL))

CN(C)CC(=O)Nc1ccc(-c2ccc(O)c3c2CC2CC4C(N(C)C)C(O)=C(C(N)=O)C(=O)C4(O)C(O)=C2C3=O)cc1 (stereo not drawn) [BC]
MIC Gram Positive (SA RN450) [1, 4]: *** (Good antibacterial activity (e.g., less than about 4 μg/mL)) | MIC Gram Negative (EC D1-209) [2, 4]: *** (Good antibacterial activity (e.g., less than about 4 μg/mL))

CN(C)CCCNCc1cccc(-c2ccc(O)c3c2CC2CC4C(N(C)C)C(O)=C(C(N)=O)C(=O)C4(O)C(O)=C2C3=O)c1 (stereo not drawn) [CX]
Cmax (lowest compound concentration at which the maximum exon 7 inclusion occurs) [3]: *** (key: *: concentrations of greater than 40 μM; **: concentrations between 40 and 10 μM; ***: concentrations of less than 10 μM) | Emax (maximum percentage exon 7 inclusion observed) [3]: ** (key: *: percentage inclusion values of less than 10%; **: values of 10-20%; ***: values greater than 20%)

CCCCNC(=O)c1cccc(-c2ccc(O)c3c2CC2CC4C(N(C)C)C(O)=C(C(N)=O)C(=O)C4(O)C(O)=C2C3=O)c1 (stereo not drawn) [F]
MIC Gram Positive (SA RN450) [1, 4]: *** (Good antibacterial activity (e.g., less than about 4 μg/mL)) | MIC Gram Negative (EC D1-209) [2, 4]: * (weak antibacterial activity (greater than about 8 μg/mL))

CN(C)CCNC(=O)c1ccc(-c2ccc(O)c3c2CC2CC4C(N(C)C)C(O)=C(C(N)=O)C(=O)C4(O)C(O)=C2C3=O)cc1 (stereo not drawn) [AD]
MIC Gram Positive (SA RN450) [1, 4]: *** (Good antibacterial activity (e.g., less than about 4 μg/mL)) | MIC Gram Negative (EC D1-209) [2, 4]: * (weak antibacterial activity (greater than about 8 μg/mL))

CC(=O)Nc1cccc(-c2ccc(O)c3c2CC2CC4C(N(C)C)C(O)=C(C(N)=O)C(=O)C4(O)C(O)=C2C3=O)c1 (stereo not drawn) [AO]
MIC Gram Positive (SA RN450) [1, 4]: *** (Good antibacterial activity (e.g., less than about 4 μg/mL)) | MIC Gram Negative (EC D1-209) [2, 4]: * (weak antibacterial activity (greater than about 8 μg/mL))

CN(C)CCN(C)Cc1cccc(-c2ccc(O)c3c2CC2CC4C(N(C)C)C(O)=C(C(N)=O)C(=O)C4(O)C(O)=C2C3=O)c1 (stereo not drawn) [CT]
Cmax (lowest compound concentration at which the maximum exon 7 inclusion occurs) [3]: ** (concentrations between 40 and 10 μM) | Emax (maximum percentage exon 7 inclusion observed) [3]: ** (values of 10-20%)

CN(C)C1C(O)=C(C(N)=O)C(=O)C2(O)C(O)=C3C(=O)c4c(O)ccc(C(=O)CNCC(N)=O)c4CC3CC12 (stereo not drawn) [BZ]
MIC Gram Positive (SA RN450) [1]: ** (key: ***: Good antibacterial activity (e.g., less than about 4 μg/mL); **: modest antibacterial activity (between about 4 and 8 μg/mL); *: weak antibacterial activity (greater than about 8 μg/mL)) | MIC Gram Negative (EC D1-209) [2]: * (key: ***: Good antibacterial activity (e.g., less than about 4 μg/mL); **: modest antibacterial activity (between about 4 and 8 μg/mL); *: weak antibacterial activity (greater than about 8 μg/mL))

CN(C)C1C(O)=C(C(N)=O)C(=O)C2(O)C(O)=C3C(=O)c4c(O)ccc(C(=O)CN5CCN(C6CCCCC6)CC5)c4CC3CC12 (stereo not drawn) [BU]
MIC Gram Positive (SA RN450) [1, 4]: *** (Good antibacterial activity (e.g., less than about 4 μg/mL)) | MIC Gram Negative (EC D1-209) [2, 4]: *** (Good antibacterial activity (e.g., less than about 4 μg/mL))

CN(C)CCCNC(=O)c1cccc(-c2cc(N(C)C)c3c(c2O)C(=O)C2=C(O)[C@]4(O)C(=O)C(C(N)=O)=C(O)[C@@H](N(C)C)[C@@H]4C[C@@H]2C3)c1 [Compound X]
MIC Gram Positive (SA RN450) [1, 4]: * (weak antibacterial activity (greater than about 8 μg/mL)) | MIC Gram Negative (EC D1-209) [2, 4]: * (weak antibacterial activity (greater than about 8 μg/mL))

CN(C)C1C(O)=C(C(N)=O)C(=O)C2(O)C(O)=C3C(=O)c4c(O)ccc(-c5cccc(C=CC#N)c5)c4CC3CC12 (stereo not drawn) [CO]
Cmax (lowest compound concentration at which the maximum exon 7 inclusion occurs) [3, 5]: ** (concentrations between 40 and 10 μM) | Emax (maximum percentage exon 7 inclusion observed) [3, 5]: ** (values of 10-20%)

CN(C)C1C(O)=C(C(N)=O)C(=O)C2(O)C(O)=C3C(=O)c4c(O)ccc(-c5ccccc5)c4CC3CC12 (stereo not drawn) [AQ]
MIC Gram Positive (SA RN450) [1, 4]: *** (Good antibacterial activity (e.g., less than about 4 μg/mL)) | MIC Gram Negative (EC D1-209) [2, 4]: ** (modest antibacterial activity (between about 4 and 8 μg/mL))

COCCCNC(=O)c1cccc(-c2ccc(O)c3c2CC2CC4C(N(C)C)C(O)=C(C(N)=O)C(=O)C4(O)C(O)=C2C3=O)c1 (stereo not drawn) [CQ]
Cmax (lowest compound concentration at which the maximum exon 7 inclusion occurs) [3, 5]: * (concentrations of greater than 40 μM) | Emax (maximum percentage exon 7 inclusion observed) [3, 5]: ** (values of 10-20%)

COCC(=O)c1ccc(O)c2c1CC1CC3C(N(C)C)C(O)=C(C(N)=O)C(=O)C3(O)C(O)=C1C2=O (stereo not drawn) [BW]
MIC Gram Positive (SA RN450) [1, 4]: *** (Good antibacterial activity (e.g., less than about 4 μg/mL)) | MIC Gram Negative (EC D1-209) [2, 4]: * (weak antibacterial activity (greater than about 8 μg/mL))

COC(=O)c1ccc(-c2ccc(O)c3c2CC2CC4C(N(C)C)C(O)=C(C(N)=O)C(=O)C4(O)C(O)=C2C3=O)cc1 (stereo not drawn) [AR]
MIC Gram Positive (SA RN450) [1, 4]: *** (Good antibacterial activity (e.g., less than about 4 μg/mL)) | MIC Gram Negative (EC D1-209) [2, 4]: * (weak antibacterial activity (greater than about 8 μg/mL))

CN(C)CCCN(C)Cc1cccc(-c2ccc(O)c3c2C[C@H]2C[C@H]4[C@H](N(C)C)C(O)=C(C(N)=O)C(=O)[C@@]4(O)C(O)=C2C3=O)c1 [Compound CU, (4S,4aS,5aR,12aS)-4-Dimethylamino-7-(3-{[(3-dimethylamino-propyl)-methyl-amino]-methyl}-phenyl)-3,10,12,12a-tetrahydroxy-1,11-dioxo-1,4,4a,5,5a,6,11,12a-octahydro-naphthacene-2-carboxylic Acid Amide]
Cmax (lowest compound concentration at which the maximum exon 7 inclusion occurs) [3, 5]: *** (concentrations of less than 10 μM) | Emax (maximum percentage exon 7 inclusion observed) [3, 5]: ** (values of 10-20%)

CN(C)CCCCNCc1cccc(-c2ccc(O)c3c2CC2CC4C(N(C)C)C(O)=C(C(N)=O)C(=O)C4(O)C(O)=C2C3=O)c1 (stereo not drawn) [CV]
Cmax (lowest compound concentration at which the maximum exon 7 inclusion occurs) [3, 5]: *** (concentrations of less than 10 μM) | Emax (maximum percentage exon 7 inclusion observed) [3, 5]: ** (values of 10-20%)

CN(C)C1C(O)=C(C(N)=O)C(=O)C2(O)C(O)=C3C(=O)c4c(O)ccc(-c5cccc(C(=O)NCCN6CCOCC6)c5)c4CC3CC12 (stereo not drawn) [CP]
Cmax (lowest compound concentration at which the maximum exon 7 inclusion occurs) [3, 5]: ** (concentrations between 40 and 10 μM) | Emax (maximum percentage exon 7 inclusion observed) [3, 5]: *** (values greater than 20%)

CN(C)C1C(O)=C(C(N)=O)C(=O)C2(O)C(O)=C3C(=O)c4c(O)ccc(-c5cccc(C(=O)NCCN6CCCC6)c5)c4CC3CC12 (stereo not drawn) [CR]
Cmax (lowest compound concentration at which the maximum exon 7 inclusion occurs) [3]: ** (key: *: concentrations of greater than 40 μM; **: concentrations between 40 and 10 μM; ***: concentrations of less than 10 μM) | Emax (maximum percentage exon 7 inclusion observed) [3]: *** (key: *: percentage inclusion values of less than 10%; **: values of 10-20%; ***: values greater than 20%)

CN(C)CCNCc1cccc(-c2ccc(O)c3c2CC2CC4C(N(C)C)C(O)=C(C(N)=O)C(=O)C4(O)C(O)=C2C3=O)c1 (stereo not drawn) [CS]
Cmax (lowest compound concentration at which the maximum exon 7 inclusion occurs) [3]: *** (key: *: concentrations of greater than 40 μM; **: concentrations between 40 and 10 μM; ***: concentrations of less than 10 μM) | Emax (maximum percentage exon 7 inclusion observed) [3]: ** (key: *: percentage inclusion values of less than 10%; **: values of 10-20%; ***: values greater than 20%)

CN(C)CCCCN(C)Cc1cccc(-c2ccc(O)c3c2CC2CC4C(N(C)C)C(O)=C(C(N)=O)C(=O)C4(O)C(O)=C2C3=O)c1 (stereo not drawn) [CW]
Cmax (lowest compound concentration at which the maximum exon 7 inclusion occurs) [3, 5]: *** (concentrations of less than 10 μM) | Emax (maximum percentage exon 7 inclusion observed) [3, 5]: ** (values of 10-20%)

— patent publication US7935687B2, “Methods for treating spinal muscular atrophy using tetracycline compounds” (Paratek Pharmaceuticals, Inc., priority 2007, dated 2011)
